US20130072519A1, “2-PHENYL BENZOYLAMIDES” (priority 2010, published 2013)

Assays:
[1] = test system: Apolipoprotein B Secretion from HepG2 Cells; test: Inhibition of Apolipoprotein B secretion from HepG2 cells (ELISA); assay type: cell-based, human; details: 22-24 hours incubation, ApoB ELISA, Low/High IC50 columns give the 95% confidence interval
[2] = Human intestinal microsomal stability; assay type: in vitro ADME; details: Human Intestinal Microsomes 0.76 mg/mL, 1 μM compound, 37° C.; for Compound remaining (%) at 4 min: pH 7.4, 4 min; for Compound remaining (%) at 30 min: pH 7.4, 30 min
Description: (§1) Pooled human liver or intestinal microsomes (final concentration 0.76 mg/mL) were diluted in 100 mM potassium phosphate buffer (pH 7.4) and preincubated at 37° C. The compounds of interest were dissolved in DMSO (30 mM), diluted to 100 μM in acetonitrile or methanol, and added to the microsomal incubations to achieve a final concentration of 1 μM with 1% or less final organic solvent. The mixtures were incubated for 30 min at 37° C. Aliquots were removed at predetermined times and quenched with an excess acetonitrile, containing an internal standard, on ice. Following centrifugation, the analytes were quantified by liquid chromatography-tandem mass spectrometry (LC-MS/MS). The compound remaining (%) was calculated from the analyte area ratio at the predetermined time/initial analyte area ratio at time 0×100.

[3] = Human liver microsomal stability; assay type: in vitro ADME; details: Human Liver Microsomes 0.76 mg/mL, 1 μM compound, 37° C.; for Compound remaining (%) at 4 min: pH 7.4, 4 min; for Compound remaining (%) at 30 min: pH 7.4, 30 min
Description: as §1

[4] = Homo sapiens, HepG2, HepG2 cells

SMILES | IC50 [1, 4] | Compound remaining (%) at 4 min [2] | Compound remaining (%) at 30 min [2] | Compound remaining (%) at 4 min [3] | Compound remaining (%) at 30 min [3] | IC50 ([1]; HepG2 cells)
CCOC(=O)C1(COC(=O)Cc2ccc(NC(=O)c3ccc(C)cc3-c3ccc(C(F)(F)F)cc3)c(C(=O)N(C)C)c2)c2ccccc2C(=O)N1C (single isomer, unassigned) [Example 56, ethyl 1-({2-[3-(dimethylcarbamoyl)-4-({[5-methyl-4′-(trifluoromethyl)biphenyl-2-yl]carbonyl}amino)phenyl]acetoxy}methyl)-2-methyl-3-oxoisoindoline-1-carboxylate] | 0.147 nM | 100% | 87% | 38% | 3% | –
CCOC(=O)C1(COC(=O)Cc2ccc(NC(=O)c3ccc(C)cc3-c3ccc(C(F)(F)F)cc3)c(C(=O)N(C)C)c2)CCc2cccnc21 (single isomer, unassigned) [Example 59, ethyl 7-({2-[3-(dimethylcarbamoyl)-4-({[5-methyl-4′-(trifluoromethyl)biphenyl-2-yl]carbonyl}amino)phenyl]acetoxy}methyl)-6,7-dihydro-5H-cyclopenta[b]pyridine-7-carboxylate] | 0.712 nM | 102% | – | 22% | 1.1% | –
CCOC(=O)C1(COC(=O)Cc2ccc(NC(=O)c3ccccc3-c3ccc(OC(C)C)cc3)c(C(=O)N(C)C)c2)CCc2cccnc21 (single isomer, unassigned) [Example 60, ethyl 7-({2-[3-(dimethylcarbamoyl)-4-({[4′-isopropoxybiphenyl-2-yl)carbonyl]amino}phenyl]acetoxy}methyl)-6,7-dihydro-5H-cyclopenta[b]pyridine-7-carboxylate] | 0.535 nM | 107% | 100% | 110% | 8.5% | –
CCOC(=O)C1(COC(=O)Cc2ccc(NC(=O)c3cccc(OC)c3-c3ccc(C(F)(F)F)cc3)c(C(=O)N(C)C)c2)CCc2cccnc21 (single isomer, unassigned) [Example 61, ethyl 7-({2-[3-(dimethylcarbamoyl)-4-({[6-methoxy-4′-(trifluoromethyl)biphenyl-2-yl]carbonyl}amino)phenyl]acetoxy}methyl)-6,7-dihydro-5H-cyclopenta[b]pyridine-7-carboxylate] | 0.395 nM | 106% | 106% | 65% | 4.7% | –
CCOC(=O)[C@]1(COC(=O)Cc2ccc(NC(=O)c3cccc(C)c3-c3ccc(C(F)(F)F)cc3)c(C(=O)N(C)C)c2)c2ccccc2C(=O)N1C [Example 49, Ethyl (1R)-1-({2-[3-(Dimethylcarbamoyl)-4-({[6-methyl-4′-(trifluoromethyl)biphenyl-2-yl]carbonyl}amino)phenyl]acetoxy}methyl)-2-methyl-3-oxoisoindoline-1-carboxylate] | 0.242 nM | 100% | 83% | 42% | 2.7% | –
CCOC(=O)[C@]1(COC(=O)Cc2ccc(NC(=O)c3ccccc3-c3ccc(OC(C)C)cc3)c(C(=O)N(C)C)c2)c2ccccc2C(=O)N1C [Example 50, Ethyl (1R)-1-({2-[3-(dimethylcarbamoyl)-4-{[(4′-isopropoxybiphenyl-2-yl)carbonyl]amino}phenyl]acetoxy}methyl)-2-methyl-3-oxoisoindoline-1-carboxylate] | 0.124 nM | 100% | 92% | 48% | 3.7% | –
CCOC(=O)[C@]1(COC(=O)Cc2ccc(NC(=O)c3ccc(OC)cc3-c3ccc(C(C)(C)C)cc3)c(C(=O)N(C)C)c2)c2ccccc2C(=O)N1C [Example 69, ethyl (1R)-1-({2-[4-{[(4′-tert-butyl-5-methoxybiphenyl-2-yl)carbonyl]amino}-3-(dimethylcarbamoyl)phenyl]acetoxy}methyl)-2-methyl-3-oxoisoindoline-1-carboxylate] | 0.18 nM | – | – | – | – | –
CCOC(=O)[C@]1(COC(=O)Cc2ccc(NC(=O)c3ccc(OC)cc3-c3ccc(C(F)(F)F)cc3)c(C(=O)N(C)C)c2)c2ccccc2C(=O)N1C [Example 70, ethyl (1R)-1-({2-[3-(dimethylcarbamoyl)-4-({[5-methoxy-4′-(trifluoromethyl)biphenyl-2-yl]carbonyl}amino)phenyl]acetoxy}methyl)-2-methyl-3-oxoisoindoline-1-carboxylate] | 0.414 nM | 98% | 96% | 61% | 6.4% | –
CCOC(=O)[C@]1(COC(=O)Cc2ccc(NC(=O)c3cccc(OC)c3-c3ccc(C(F)(F)F)cc3)c(C(=O)N(C)C)c2)c2ccccc2C(=O)N1C [Example 71, ethyl (1R)-1-({2-[3-(dimethylcarbamoyl)-4-({[6-methoxy-4′-(trifluoromethyl)biphenyl-2-yl]carbonyl}amino)phenyl]acetoxy}methyl)-2-methyl-3-oxoisoindoline-1-carboxylate] | 0.176 nM | 125% | 94% | 45% | 5.3% | –
CCOC(=O)[C@]1(COC(=O)Cc2ccc(NC(=O)c3ccc(C)cc3-c3ccc(OC(C)C)cc3)c(C(=O)N(C)C)c2)c2ccccc2C(=O)N1C [Example 72, ethyl (1R)-1-({2-[3-(dimethylcarbamoyl)-4-{[(4′-isopropoxy-5-methylbiphenyl-2-yl)carbonyl]amino}phenyl]acetoxy}methyl)-2-methyl-3-oxoisoindoline-1-carboxylate] | 0.119 nM | 125% | 100% | 71% | 9.2% | –
CCOC(=O)[C@]1(COC(=O)Cc2ccc(NC(=O)c3ccccc3-c3ccc(C(C)C)cc3)c(C(=O)N(C)C)c2)c2ccccc2C(=O)N1C [Example 73, ethyl (1R)-1-({2-[3-(dimethylcarbamoyl)-4-{[(4′-isopropylbiphenyl-2-yl)carbonyl]amino}phenyl]acetoxy}methyl)-2-methyl-3-oxoisoindoline-1-carboxylate] | 0.162 nM | – | – | – | – | –
CCOC(=O)[C@]1(COC(=O)Cc2ccc(NC(=O)c3ccccc3-c3ccccc3)c(C(=O)N(C)C)c2)c2ccccc2C(=O)N1C [Example 74, ethyl (1R)-1-[(2-{4-[(biphenyl-2-ylcarbonyl)amino]-3-(dimethylcarbamoyl)phenyl}acetoxy)methyl]-2-methyl-3-oxoisoindoline-1-carboxylate] | 1.28 nM | – | – | – | – | –
CCOC(=O)[C@]1(COC(=O)Cc2ccc(NC(=O)c3ccccc3-c3ccccc3OC)c(C(=O)N(C)C)c2)c2ccccc2C(=O)N1C [Example 75, ethyl (1R)-1-({2-[3-(dimethylcarbamoyl)-4-{[(2′-methoxybiphenyl-2-yl)carbonyl]amino}phenyl]acetoxy}methyl)-2-methyl-3-oxoisoindoline-1-carboxylate] | 4.16 nM | – | – | – | – | –
CCOC(=O)[C@]1(COC(=O)Cc2ccc(NC(=O)c3ccccc3-c3ccc(OC(C)C)cc3)c(C(=O)N(C)C)c2)c2ccccc2C(=O)N1C [Example 77, Ethyl (1R)-1-({2-[3-(dimethylcarbamoyl)-4-{[(4′-isopropoxybiphenyl-2-yl)carbonyl]amino}phenyl]acetoxy}methyl)-2-methyl-3-oxoisoindoline-1-carboxylate] | – | – | – | – | – | 0.119 nM
